Data taken from US20250171438A1 (Agios Pharmaceuticals, Inc., priority 2022, published 2025).

biological target: T1, human PAH with the R408W mutation (Homo sapiens, UniProt P00439, R408W); test: Cell Based Phenylalanine Flux Assay; settings: A375 cells expressing human R408W PAH; 24 hrs compound incubation; 13C-Tyrosine by LC-MS; average where tested multiple times; read-out: AC50
T1 construct: expressed in transfected cells
T1 sequence (P00439 1-452 R408W): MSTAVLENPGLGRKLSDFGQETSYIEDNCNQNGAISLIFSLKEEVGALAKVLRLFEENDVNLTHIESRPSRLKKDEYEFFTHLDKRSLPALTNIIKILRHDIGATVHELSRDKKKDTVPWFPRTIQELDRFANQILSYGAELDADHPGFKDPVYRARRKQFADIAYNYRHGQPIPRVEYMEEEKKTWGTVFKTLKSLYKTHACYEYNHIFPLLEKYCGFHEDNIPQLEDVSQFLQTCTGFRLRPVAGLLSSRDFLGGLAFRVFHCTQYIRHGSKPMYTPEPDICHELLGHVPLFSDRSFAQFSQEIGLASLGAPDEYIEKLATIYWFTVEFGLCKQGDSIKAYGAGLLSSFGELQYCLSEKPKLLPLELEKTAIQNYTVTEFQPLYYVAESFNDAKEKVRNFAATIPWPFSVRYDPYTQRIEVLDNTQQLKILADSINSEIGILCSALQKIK

AC50 [nM] | SMILES
1000 to 5000 | O=C(c1nc(Cl)cs1)N1CCc2[nH]cnc2[C@@H]1c1nc2cccc(F)c2s1 [Example 1264, (R)-(4-chlorothiazol-2-yl)(4-(7-fluorobenzo[d]thiazol-2-yl)-6,7-dihydro-1H-imidazo[4,5-c]pyridin-5(4H)-yl)methanone]
1000 to 5000 | O=C(c1nncs1)N1CCc2[nH]cnc2[C@@H]1c1nc2cccc(F)c2s1 [Example 1265, (R)-(4-(7-fluorobenzo[d]thiazol-2-yl)-6,7-dihydro-1H-imidazo[4,5-c]pyridin-5(4H)-yl)(1,3,4-thiadiazol-2-yl)methanone]
< 500 | O=C(c1nncs1)N1CCc2[nH]cnc2[C@H]1c1nc2cccc(F)c2s1 [Example 1266, (S)-(4-(7-fluorobenzo[d]thiazol-2-yl)-6,7-dihydro-1H-imidazo[4,5-c]pyridin-5(4H)-yl)(1,3,4-thiadiazol-2-yl)methanone]
1000 to 5000 | O=C(c1ncn2ccccc12)N1CCc2[nH]cnc2[C@@H]1c1nc2cccc(F)c2s1 [Example 1267, (R)-(4-(7-fluorobenzo[d]thiazol-2-yl)-6,7-dihydro-1H-imidazo[4,5-c]pyridin-5(4H)-yl)(imidazo[1,5-a]pyridin-1-yl)methanone]
< 500 | O=C(c1ncn2ccccc12)N1CCc2[nH]cnc2[C@H]1c1nc2cccc(F)c2s1 [Example 1268, (S)-(4-(7-fluorobenzo[d]thiazol-2-yl)-6,7-dihydro-1H-imidazo[4,5-c]pyridin-5(4H)-yl)(imidazo[1,5-a]pyridin-1-yl)methanone]
1000 to 5000 | O=C(c1nncs1)N1CCc2[nH]cnc2[C@@H]1c1nc2c(F)cccc2s1 [Example 1269, (R)-(4-(4-fluorobenzo[d]thiazol-2-yl)-6,7-dihydro-1H-imidazo[4,5-c]pyridin-5(4H)-yl)(1,3,4-thiadiazol-2-yl)methanone]
500 to 1000 | O=C(c1nncs1)N1CCc2[nH]cnc2[C@H]1c1nc2c(F)cccc2s1 [Example 1270, (S)-(4-(4-fluorobenzo[d]thiazol-2-yl)-6,7-dihydro-1H-imidazo[4,5-c]pyridin-5(4H)-yl)(1,3,4-thiadiazol-2-yl)methanone]

Continued, molecule first:

SMILES | AC50 [nM]
O=C(N1CCc2[nH]cnc2[C@@H]1c1nc2ccccc2s1)C1(CF)CC1 [Example 1256, (R)-(4-(benzo[d]thiazol-2-yl)-6,7-dihydro-1H-imidazo[4,5-c]pyridin-5(4H)-yl)(1-(fluoromethyl)cyclopropyl)methanone] | > 5000
O=C(CC1CC1)N1CCc2[nH]cnc2[C@H]1c1nc2cccc(F)c2s1 [Example 1257, (S)-2-cyclopropyl-1-(4-(7-fluorobenzo[d]thiazol-2-yl)-6,7-dihydro-1H-imidazo[4,5-c]pyridin-5(4H)-yl)ethanone] | < 500
O=C(CC1CC1)N1CCc2[nH]cnc2[C@@H]1c1nc2cccc(F)c2s1 [Example 1258, (R)-2-cyclopropyl-1-(4-(7-fluorobenzo[d]thiazol-2-yl)-6,7-dihydro-1H-imidazo[4,5-c]pyridin-5(4H)-yl)ethanone] | 500 to 1000
O=C(C1CC1)N1CCc2[nH]cnc2[C@H]1c1nc2cccc(F)c2s1 [Example 1259, (S)-cyclopropyl(4-(7-fluorobenzo[d]thiazol-2-yl)-6,7-dihydro-1H-imidazo[4,5-c]pyridin-5(4H)-yl)methanone] | 500 to 1000
O=C(C1CC1)N1CCc2[nH]cnc2[C@@H]1c1nc2cccc(F)c2s1 [Example 1260, (R)-cyclopropyl(4-(7-fluorobenzo[d]thiazol-2-yl)-6,7-dihydro-1H-imidazo[4,5-c]pyridin-5(4H)-yl)methanone] | > 5000
O=C(c1ncc(Cl)s1)N1CCc2[nH]cnc2[C@H]1c1nc2cc(F)ccc2s1 [Example 1261] | 1000 to 5000
O=C(c1ncc(Cl)s1)N1CCc2[nH]cnc2[C@@H]1c1nc2cc(F)ccc2s1 [Example 1262, (R)-(5-chlorothiazol-2-yl)(4-(5-fluorobenzo[d]thiazol-2-yl)-6,7-dihydro-1H-imidazo[4,5-c]pyridin-5(4H)-yl)methanone] | 1000 to 5000
O=C(c1nc(Cl)cs1)N1CCc2[nH]cnc2[C@H]1c1nc2cccc(F)c2s1 [Example 1263] | 1000 to 5000
